Measurements taken from patent US6613322B2, “Method for treating a subject suffering from conditions associated with an extracellular zinc sphingomyelinase” (The Trustees of Columbia University in the City of New York, priority 1997, dated 2003).

Target: T1, internalized S-SMase (Homo sapiens, UniProt P17405)
T1 construct: FLAG; purchased AMGEN, Boulder, Colo
T1 sequence (P17405 47-631): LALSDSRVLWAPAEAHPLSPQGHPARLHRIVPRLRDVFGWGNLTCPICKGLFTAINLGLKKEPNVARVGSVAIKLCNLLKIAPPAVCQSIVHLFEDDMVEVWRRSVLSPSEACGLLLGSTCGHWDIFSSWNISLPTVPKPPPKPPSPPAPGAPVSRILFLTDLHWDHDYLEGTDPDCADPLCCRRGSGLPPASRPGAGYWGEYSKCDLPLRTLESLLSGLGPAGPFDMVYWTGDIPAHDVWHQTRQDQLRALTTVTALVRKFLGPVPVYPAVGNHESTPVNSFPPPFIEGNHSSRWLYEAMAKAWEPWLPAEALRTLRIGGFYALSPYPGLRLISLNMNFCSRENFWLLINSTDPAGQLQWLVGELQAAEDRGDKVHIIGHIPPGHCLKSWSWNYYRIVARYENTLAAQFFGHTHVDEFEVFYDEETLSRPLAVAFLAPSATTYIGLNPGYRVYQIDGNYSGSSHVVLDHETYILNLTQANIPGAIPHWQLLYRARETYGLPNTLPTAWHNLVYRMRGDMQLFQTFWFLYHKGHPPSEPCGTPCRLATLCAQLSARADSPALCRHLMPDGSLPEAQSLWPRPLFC
Assay: SMase activity in homogenates of type A Niemann-Pick fibroblasts after internalization of FLAG-tagged S-SMase
Type: biochemical
Conditions: 0.1 mM ZnCl2, sonicated cell homogenates
Protocol: FIG. 17. Zn^2+-dependency of S-SMase after internalization by type A Niemann-Pick cells. Skin fibroblasts from a patient with type A Niemann-Pick disease (NP-A Cells) were grown to 90% confluency in medium supplemented with 10% HI-FBS. The cells were then washed three times with PBS and incubated in serum-free media containing 0.2% BSA and 850 ng immunoaffinity-isolated FLAG-tagged S-SMase (Purified S-SMase)/ml at 37° C. for 16 h. The cell homogenate and incubation medium were then prepared as described in “Experimental Procedures”, and aliquots were assayed for SMase activity in the presence of either 5 mM EDTA (hatched bars) or 0.1 mM ZnCl2 (solid bars) for 2 h at 37° C. at pH 5.0. […]
SMase Assay—As previously described (Schissel et al., 1996), the standard 200-μl assay mixture consisted of up to 40 μl of sample (conditioned media or homogenized cells; see above) and a volume of assay buffer (0.1 M sodium acetate, pH 5.0) to bring the volume to 160 μl. […] The ceramide spots were scraped and directly counted to quantify [^3H]ceramide. Typically, the assay reactions contained approximately 20 μg of cellular homogenate protein and a volume of conditioned media derived from a quantity of cells equivalent to approximately 50 μg of cellular protein. […]

[Cl-].[Cl-].[Zn+2] [Zn^2+, ZnCl2]
effect of added Zn2+ on cellular enzymatic activity: failed to increase
